According to ChEMBL document CHEMBL1770077, “Synthesis, modelling and kinetic assays of potent inhibitors of purple acid phosphatase” (Bioorg Med Chem Lett, 2011):

Key:
[1] = Competitive inhibition of pig PAP using para-nitrophenol as substrate at pH 4.9 preincubated for 10 mins by UV-visible spectrophotometry; parameters: species or system Sus scrofa
[2] = target: T1, Fe(3+)-Zn(2+) purple acid phosphatase (Phaseolus vulgaris, UniProt P80366); assay: Competitive inhibition of red kidney bean PAP using para-nitrophenol as substrate at pH 4.9 preincubated for 10 mins by UV-visible spectrophotometry
T1 sequence (P80366 whole entry): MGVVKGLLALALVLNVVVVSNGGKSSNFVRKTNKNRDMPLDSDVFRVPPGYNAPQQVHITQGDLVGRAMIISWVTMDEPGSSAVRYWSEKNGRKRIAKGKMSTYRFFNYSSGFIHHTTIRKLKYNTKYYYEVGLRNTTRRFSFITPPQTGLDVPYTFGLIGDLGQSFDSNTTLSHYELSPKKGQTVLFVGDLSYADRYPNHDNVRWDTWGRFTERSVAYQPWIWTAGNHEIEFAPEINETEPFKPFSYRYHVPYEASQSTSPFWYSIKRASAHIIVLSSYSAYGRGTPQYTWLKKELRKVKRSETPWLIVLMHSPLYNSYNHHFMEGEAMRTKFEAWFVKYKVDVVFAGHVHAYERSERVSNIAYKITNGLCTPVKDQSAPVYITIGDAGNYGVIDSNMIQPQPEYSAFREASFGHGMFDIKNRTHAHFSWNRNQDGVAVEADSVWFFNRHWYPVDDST

[3] = target: T1, Fe(3+)-Zn(2+) purple acid phosphatase; assay: Uncompetitive inhibition of red kidney bean PAP using para-nitrophenol as substrate at pH 4.9 preincubated for 10 mins by UV-visible spectrophotometry
[4] = Uncompetitive inhibition of pig PAP using para-nitrophenol as substrate at pH 4.9 preincubated for 10 mins by UV-visible spectrophotometry; parameters: species or system Sus scrofa

Structure (SMILES)	Ki [1]	Ki [2]	Ki [3]	Ki [4]
CCCC(=O)NC(c1cccc2ccccc12)P(=O)(O)O (racemic)	363 µM	238 µM	654 µM	1440 µM
CCCCCCC(=O)NC(c1cccc2ccccc12)P(=O)(O)O (racemic)	116 µM	222 µM	446 µM	349 µM
CCCCCCCC(=O)NC(c1cccc2ccccc12)P(=O)(O)O (racemic)	44 µM	195 µM	443 µM	
CCCCCCCCCC(=O)NC(c1cccc2ccccc12)P(=O)(O)O (racemic)	10 µM	57 µM	102 µM	
CCCCCCCCCCCC(=O)NC(c1cccc2ccccc12)P(=O)(O)O (racemic)	21 µM	5 µM		
CCCCCCCCCCCCCC(=O)NC(c1cccc2ccccc12)P(=O)(O)O (racemic)	8 µM	11 µM		
CCCCCCCCCCCCCCCC(=O)NC(c1cccc2ccccc12)P(=O)(O)O (racemic)	13 µM	31 µM		
